Experimental data as given in patent US9242996B2 (Novartis AG, priority 2013, dated 2016).

Each compound was assayed against activated ERK2 (Homo sapiens (Human), UniProt P28482) (assay: Activated ERK2 (20 pM) Kinase Assay (AlphaScreen, ERKtide phosphorylation)). Settings: 0.02 nM ERK2, 400 nM ERKtide peptide, 35 μM ATP, 30 min preincubation.
Chain of activated ERK2 (P28482 whole entry): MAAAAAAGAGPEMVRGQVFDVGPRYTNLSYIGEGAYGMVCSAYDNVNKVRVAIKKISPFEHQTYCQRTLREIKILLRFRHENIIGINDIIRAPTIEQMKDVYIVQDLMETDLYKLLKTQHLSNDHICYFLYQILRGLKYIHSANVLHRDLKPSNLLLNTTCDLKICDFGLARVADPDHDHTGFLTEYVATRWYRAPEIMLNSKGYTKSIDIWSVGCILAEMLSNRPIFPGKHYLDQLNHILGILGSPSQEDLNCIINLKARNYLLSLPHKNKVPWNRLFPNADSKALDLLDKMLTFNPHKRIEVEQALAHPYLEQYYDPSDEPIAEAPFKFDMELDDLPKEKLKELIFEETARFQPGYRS
Type: biochemical
Summary of the method: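 AlphaScreen read-out (anti-phospho-EGFR Thr669 antibody, protein A acceptor/streptavidin donor beads) of ERKtide (400 nM) phosphorylation by 20 pM activated ERK2 at 35 μM ATP.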
In the case of C[C@@H](O)[C@@H](NC(=O)c1ccc(-c2cc(-c3cnn(C)c3)cnc2N)cc1F)c1cccc(Cl)c1 [Example 332, 4-(2-amino-5-(1-methyl-1H-pyrazol-4-yl)pyridin-3-yl)-N-((1S,2R)-1-(3-chlorophenyl)-2-hydroxypropyl)-2-fluorobenzamide], the IC50 is reported as 0.815 nM. Nc1ncc(C2CCOCC2)nc1-c1ccc(C(=O)N[C@H](CO)c2cc(F)cc(C(F)F)c2)c(F)c1 [Example 335, (S)-4-(3-amino-6-(tetrahydro-2H-pyran-4-yl)pyrazin-2-yl)-N-(1-(3-(difluoromethyl)-5-fluorophenyl)-2-hydroxyethyl)-2-fluorobenzamide] was tested, and the IC50 was 0.0208 nM. With CNC[C@@H](NC(=O)c1ccc(-c2nc(C3CCOCC3)cnc2N)cc1F)c1cc(F)cc(Cl)c1 [Example 336, (S)-4-(3-amino-6-(tetrahydro-2H-pyran-4-yl)pyrazin-2-yl)-N-(1-(3-chloro-5-fluorophenyl)-2-(methylamino)ethyl)-2-fluorobenzamide] the IC50 was 0.0143 nM. In the case of Nc1ncc([C@H]2CC[C@H](O)CC2)nc1-c1ccc(C(=O)N[C@H](CO)c2cc(F)cc(C(F)F)c2)c(F)c1 [Example 337, 4-(3-amino-6-((1r,4S)-4-hydroxycyclohexy)pyrazin-2-yl)-N-((S)-1-(3-(difluoromethyl)-5-fluorophenyl)-2-hydroxyethyl)-2-fluorobenzamide], the IC50 is reported as 0.0435 nM. For Nc1ncc([C@H]2CC[C@H](O)CC2)nc1-c1ccc(C(=O)N[C@H](CO)c2cccc(C(F)(F)F)c2)c(F)c1 [Example 340, 4-(3-amino-6-((1r,4S)-4-hydroxy-cyclohexyl)pyrazin-2-yl)-2-fluoro-N-((S)-2-hydroxy-1-(3-(trifluoromethyl)phenyl)ethyl) benzamide], the IC50 was 187 nM. Work on Nc1ncc([C@H]2CC[C@@H](O)CC2)nc1-c1ccc(C(=O)N[C@H](CO)c2cccc(C(F)(F)F)c2)c(F)c1 [Example 341, 4-(3-amino-6-((1s,4R)-4-hydroxy-cyclohexyl)pyrazin-2-yl)-2-fluoro-N-((S)-2-hydroxy-1-(3-(trifluoromethyl)phenyl)ethyl) benzamide] yielded an IC50 of 1050 nM. NC[C@@H](NC(=O)c1ccc(-c2nc([C@H]3CC[C@H](O)CC3)cnc2N)cc1F)c1cc(F)cc(Br)c1 [Example 342, N-((S)-2-amino-1-(3-bromo-5-fluorophenyl)ethyl)-4-(3-amino-6-((1r,4S)-4-hydroxycyclohexyl)pyrazin-2-yl)-2-fluorobenzamide] showed an IC50 of 0.0173 nM. Work on NC[C@@H](NC(=O)c1ccc(-c2nc([C@H]3CC[C@H](O)CC3)cnc2N)cc1F)c1cccc(I)c1 [Example 343, N-((S)-2-amino-1-(3-iodophenyl)ethyl)-4-(3-amino-6-((1r,4S)-4-hydroxy-cyclohexyl)pyrazin-2-yl)-2-fluorobenzamide] yielded an IC50 of 0.011 nM. With Nc1ncc([C@H]2CC[C@H](O)CC2)nc1-c1ccc(C(=O)N[C@H](CO)c2cc(F)cc(I)c2)c(F)c1 [Example 344, 4-(3-amino-6-((1r,4S)-4-hydroxy-cyclohexyl)pyrazin-2-yl)-2-fluoro-N-((S)-1-(3-fluoro-5-iodophenyl)-2-hydroxyethyl) benzamide] the IC50 was 0.00977 nM. Nc1ncc([C@H]2CC[C@@H](O)CC2)nc1-c1ccc(C(=O)N[C@H](CO)c2cc(F)cc(I)c2)c(F)c1 [Example 345, 4-(3-amino-6-((1s,4R)-4-hydroxy-cyclohexyl)pyrazin-2-yl)-2-fluoro-N-((S)-1-(3-fluoro-5-iodophenyl)-2-hydroxyethyl) benzamide] showed an IC50 of 0.0956 nM. Nc1ncc([C@H]2CC[C@H](O)CC2)nc1-c1ccc(C(=O)N[C@H](CO)c2cccc(I)c2)c(F)c1 [Example 346, 4-(3-amino-6-((1r,4S)-4-hydroxy-cyclohexyl)pyrazin-2-yl)-2-fluoro-N-((S)-2-hydroxy-1-(3-iodophenyl)ethyl) benzamide] showed an IC50 of 0.0175 nM. In the case of Nc1ncc([C@H]2CC[C@@H](O)CC2)nc1-c1ccc(C(=O)N[C@H](CO)c2cccc(I)c2)c(F)c1 [Example 347, 4-(3-amino-6-((1s,4R)-4-hydroxy-cyclohexyl)pyrazin-2-yl)-2-fluoro-N-((S)-2-hydroxy-1-(3-iodophenyl)ethyl) benzamide], the IC50 is reported as 0.193 nM. CNC[C@@H](NC(=O)c1ccc(-c2nc([C@@H]3CC[C@@H](O)[C@@H](F)C3)cnc2N)cc1F)c1cc(F)cc(Br)c1 [Example 355, 4-(3-amino-6-((1R,3S,4R)-3-fluoro-4-hydroxy-cyclohexyl)pyrazin-2-yl)-N-((S)-1-(3-bromo-5-fluorophenyl)-2-(methylamino)ethyl)-2-fluorobenzamide] gave an IC50 of 0.023 nM. Compound CNC[C@@H](NC(=O)c1ccc(-c2nc([C@H]3CC[C@H](O)[C@H](F)C3)cnc2N)cc1F)c1cc(F)cc(Br)c1 [Example 356, 4-(3-amino-6-((1S,3R,4S)-3-fluoro-4-hydroxy-cyclohexyl)pyrazin-2-yl)-N-((S)-1-(3-bromo-5-fluorophenyl)-2-(methylamino)ethyl)-2-fluorobenzamide] has an IC50 of 0.0317 nM. For CNC[C@@H](NC(=O)c1ccc(-c2nc([C@H]3CC[C@H](O)[C@@H](F)C3)cnc2N)cc1F)c1cc(F)cc(I)c1 [Example 357, 4-(3-amino-6-((1S,3S,4S)-3-fluoro-4-hydroxy-cyclohexyl)pyrazin-2-yl)-2-fluoro-N-((S)-1-(3-fluoro-5-iodophenyl)-2-(methylamino)ethyl)benzamide], the IC50 was 0.0143 nM. For CNC[C@@H](NC(=O)c1ccc(-c2nc([C@@H]3CC[C@@H](O)[C@H](F)C3)cnc2N)cc1F)c1cc(F)cc(I)c1 [Example 358, 4-(3-amino-6-((1R,3R,4R)-3-fluoro-4-hydroxy-cyclohexyl)pyrazin-2-yl)-2-fluoro-N-((S)-1-(3-fluoro-5-iodophenyl)-2-(methylamino)ethyl)benzamide], the IC50 was 0.0205 nM. CNC[C@@H](NC(=O)c1ccc(-c2nc([C@@H]3CC[C@@H](O)[C@H](F)C3)cnc2N)cc1F)c1cccc(Br)c1 [Example 359, 4-(3-amino-6-((1R,3R,4R)-3-fluoro-4-hydroxy-cyclohexyl)pyrazin-2-yl)-N-((S)-1-(3-bromophenyl)-2-(methylamino)ethyl)-2-fluorobenzamide] was tested, and the IC50 was 0.076 nM. Work on CNC[C@@H](NC(=O)c1ccc(-c2nc([C@H]3CC[C@H](O)CC3)cnc2N)cc1F)c1cc(F)cc(I)c1 [Example 360, 4-(3-amino-6-((1r,4S)-4-hydroxy-cyclohexyl)pyrazin-2-yl)-2-fluoro-N-((S)-1-(3-fluoro-5-iodophenyl)-2-(methylamino)ethyl)benzamide] yielded an IC50 of 0.00665 nM. CNC[C@@H](NC(=O)c1ccc(-c2nc([C@@H]3CC[C@@H](O)[C@H](F)C3)cnc2N)cc1F)c1cc(F)cc(Br)c1 [Example 361, 4-(3-amino-6-((1R,3R,4R)-3-fluoro-4-hydroxy-cyclohexyl)pyrazin-2-yl)-N-((S)-1-(3-bromo-5-fluorophenyl)-2-(methylamino)ethyl)-2-fluorobenzamide] gave an IC50 of 0.104 nM. CNC[C@@H](NC(=O)c1ccc(-c2nc(C3CCOCC3)cnc2N)cc1F)c1cc(F)cc(Br)c1 [Example 365, (S)-4-(3-amino-6-(tetrahydro-2H-pyran-4-yl)pyrazin-2-yl)-N-(1-(3-bromo-5-fluorophenyl)-2-(methylamino)ethyl)-2-fluorobenzamide] was tested, and the IC50 was 0.0208 nM. Compound CCNC[C@@H](NC(=O)c1ccc(-c2nc(C3CCOCC3)cnc2N)cc1F)c1cc(F)cc(Br)c1 [Example 371, (S)-4-(3-amino-6-(tetrahydro-2H-pyran-4-yl)pyrazin-2-yl)-N-(1-(3-bromo-5-fluorophenyl)-2-(ethylamino)ethyl)-2-fluorobenzamide] has an IC50 of 0.03 nM. NC[C@@H](NC(=O)c1ccc(-c2nc([C@H]3CC[C@H](O)CC3)cnc2N)cc1F)c1cc(F)cc(I)c1 [Example 373, N-((S)-2-amino-1-(3-fluoro-5-iodophenyl)ethyl)-4-(3-amino-6-((1r,4S)-4-hydroxy-cyclohexyl)pyrazin-2-yl)-2-fluorobenzamide] gave an IC50 of 0.00837 nM. CNC[C@@H](NC(=O)c1ccc(-c2nc([C@H]3CC[C@H](OC)CC3)cnc2N)cc1F)c1cc(F)cc(Br)c1 [Example 374, 4-(3-amino-6-((1r,4S)-4-methoxy-cyclohexyl)pyrazin-2-yl)-N-((S)-1-(3-bromo-5-fluorophenyl)-2-(methylamino)ethyl)-2-fluorobenzamide] was tested, and the IC50 was 0.0205 nM. Work on CNC[C@@H](NC(=O)c1ccc(-c2nc([C@H]3CC[C@H](OC)CC3)cnc2N)cc1F)c1cccc(Br)c1 [Example 375, 4-(3-amino-6-((1r,4S)-4-methoxy-cyclohexyl)pyrazin-2-yl)-N-((S)-1-(3-bromophenyl)-2-(methylamino)ethyl)-2-fluorobenzamide] yielded an IC50 of 0.0401 nM. With CNC[C@@H](NC(=O)c1ccc(-c2nc([C@H]3CC[C@H](O)CC3)cnc2N)cc1F)c1cc(F)cc(Br)c1 [Example 376, 4-(3-amino-6-((1r,4S)-4-hydroxy-cyclohexyl)pyrazin-2-yl)-N-((S)-1-(3-bromo-5-fluorophenyl)-2-(methylamino)ethyl)-2-fluorobenzamide] the IC50 was 0.0183 nM. With CNC[C@@H](NC(=O)c1ccc(-c2nc([C@H]3CC[C@H](OC)CC3)cnc2N)cc1F)c1cccc(Cl)c1 [Example 377, 4-(3-amino-6-((1r,4S)-4-methoxy-cyclohexyl)pyrazin-2-yl)-N-((S)-1-(3-chlorophenyl)-2-(methylamino)ethyl)-2-fluorobenzamide] the IC50 was 0.07 nM. For CCNC[C@@H](NC(=O)c1ccc(-c2nc(C3CCOCC3)cnc2N)cc1F)c1cccc(Br)c1 [Example 378, (S)-4-(3-amino-6-(tetrahydro-2H-pyran-4-yl)pyrazin-2-yl)-N-(1-(3-bromophenyl)-2-(ethylamino)ethyl)-2-fluorobenzamide], the IC50 was 0.0248 nM. CCNC[C@@H](NC(=O)c1ccc(-c2nc([C@H]3CC[C@H](O)CC3)cnc2N)cc1F)c1cccc(Br)c1 [Example 379, 4-(3-amino-6-((1r,4S)-4-hydroxy-cyclohexyl)pyrazin-2-yl)-N-((S)-1-(3-bromophenyl)-2-(ethylamino)ethyl)-2-fluorobenzamide] showed an IC50 of 0.0617 nM.
